No end group written: not given here.
What was measured:
Format in all cases: cell-based
[1] = system: Candida albicans (CA), clinical isolate; assay: Antifungal MIC (Example 4); details: peptides, Tables 4 and 5
Experimental: (§1) The inventor expanded the work conducted in Example 1 by testing an expanded library of peptides derived from either apolipoprotein B or apolipoprotein E in order to further evaluate polypeptides in accordance with the invention. These experiments were conducted using the following fungal species:
(§2) FS1-FS4 were obtained from Bristol PHLS (British Public Health Laboratory Service UK). Aspergillus fumigatus 293 is publicly available as culture collection strain NCPF7367 (National Collection of Pathogenic Fungi Public Health Laboratory, Mycological Reference Laboratory Myrtle Road, Kingsdown, Bristol BS2 8EL) The Candida albicans was a clinical isolate obtained by standard means.
(§3) The methods used to determine, the IC50 values for each peptide were as described in the Example 1.

[2] = system: Aspergillus fumigatus AF293 (NCPF7367); assay: microbe, parasite or virus in culture; details: Aspergillus fumigatus 293; peptides; Tables 4 and 5
Experimental: (§4) Four compounds were supplied as an aqueous solution, 400 μM. Serial dilutions of each test peptide were prepared in addition to a control, which was a conventional antifungal drug, Amphoteracin B. Amphteracin B is obtained from Invitrogen or Melford laboratories.
(§5) Initial testing of the peptides was carried out against the following organisms: • 1) Aspergillus fumigatus AF293 (culture collection strain NCPF7367) • 2) Candida albicans 6862 (clinical isolate) • 3) Fusarium spp 5889 (clinical isolate) • 4) Fusarium spp 6507 (clinical isolate) • 5) Aspergillus terreus (clinical isolate) • 6) Aspergillus niger (clinical isolate) • 7) Staphylococcus aureus (Oxford strain, which is a standard reference strain used in MIC testing)
The bacterium S. aureus was tested with each of the peptides as a control. A suspension of each organism in an appropriate growth medium was added to the, dilutions of the peptides in order to give concentration ranges of 40 μM to 0.04 μM for each of the peptides, and 64-0.025 μg/ml for amphotericin B. Fungal strains were tested in RPMI media. RPMI is standard Roswell Park Memorial Institute medium (Morton, H. C., (1970) A survey of Commercially Available Tissue Culture Media. In Vitro 6: 89-108).
The final inoculum for S. aureus was 5×10^4 cfu/ml. The final inoculum for C. albicans was 2×10^3 cfu/ml. The final inoculum for Aspergillus fumigatus and for Fusarium spp was 2×10^4 cfu/ml.
(§6) Candida and S. aureus plates were read after 24 hrs incubation and the Aspergillus and Fusarium strains read after 48 hrs. The MIC was taken as the lowest drug or compound concentration that caused >80% reduction in growth compared with a drug free control.
Aspergillus fumigatus 293 (AF); and
as §2, with “means. […]” for “means.”

Fusarium solani 3 (FS3) = assay: Antifungal MIC (Example 4); details: Fusarium solani 3; peptides; Tables 4 and 5
Experimental: as §1, §2, §3

Fusarium solani 4 (FS4) = assay: Antifungal MIC (Example 4); details: Fusarium solani 4; peptides; Tables 4 and 5
Experimental: as §1, §2, §3

Fusarium solani 2 (FS2) = assay: Antifungal MIC (Example 4); details: Fusarium solani 2; peptides; Tables 4 and 5
Experimental: as §1, §2, §3

Fusarium solani 1 (FS1) = assay: Antifungal MIC (Example 4); details: Fusarium solani 1; peptides; Tables 4 and 5
Experimental: as §1, §2, §3

fungi = details: overall statement on the fungi tested
Experimental: as §4, §5
The bacterium S. aureus was tested with each of the peptides as a control. […] RPMI is standard Roswell Park Memorial Institute medium (Morton, H. C., (1970) A survey of Commercially Available Tissue Culture Media. In Vitro 6: 89-108).
as §6, §3

| Substance | MIC values (>80% reduction) CA [1] | MIC values (>80% reduction) AF [2] | MIC values (>80% reduction) FS3 (Fusarium solani 3 (FS3)) | MIC values (>80% reduction) FS4 (Fusarium solani 4 (FS4)) | MIC values (>80% reduction) FS2 (Fusarium solani 2 (FS2)) | MIC values (>80% reduction) FS1 (Fusarium solani 1 (FS1)) | antifungal activity (in words) (fungi) |
| --- | --- | --- | --- | --- | --- | --- | --- |
| ARKARKRAAARKARKRAA (Artificial polypeptide designated MU 2) [MU_2, 77] | >40 µM | >40 µM | >40 µM | >40 µM | >40 µM | >40 µM | – |
| CRKCRKRCCCRKCRKRCC (Artficial polypeptide designated MU 12) [MU_12] | >40 µM | 40 µM | 10 µM | 5 µM | 5 µM | 2.5 µM | particularly effective antifungal peptides |
| DRKDRKRDDDRKDRKRDD (Artificial polypeptide designated MU 3) [MU_3, 78] | >40 µM | >40 µM | >40 µM | >40 µM | >40 µM | >40 µM | – |
| ERKERKREEERKERKREE (Artificial polypeptide designated MU 1) [MU_1, 76] | >40 µM | >40 µM | >40 µM | >40 µM | >40 µM | >40 µM | – |
| GRKGRKRGGGRKGRKRGG (Artificial polypeptide designated MU 17) [MU_17, 84] | >40 µM | >40 µM | >40 µM | >40 µM | >40 µM | >40 µM | – |
| HRKHRKRHHHRKHRKRHH (Artificial polypeptide designated MU 19) [MU_19] | >40 µM | >40 µM | 40 µM | 10 µM | >40 µM | 20 µM | – |
| IRKIRKRIIIRKIRKRII (Artficial polypeptide designated MU 8) [MU_8] | >40 µM | >40 µM | 20 µM | 40 µM | 20 µM | 40 µM | – |
| KRKKRKRKKKRKKRKRKK (Artificial polypeptide designated MU 18) [MU_18, 85] | >40 µM | >40 µM | 2.5 µM | >40 µM | 10 µM | 2.5 µM | particularly effective antifungal peptides |
| LRKLRKRLL (listed as Homo sapiens) [apoE141-149, monomeric 9-mer of apolipoprotein E, reference compound] | – | – | – | – | – | – | no detectable antifungal activity |
| LRKLRKRLLLRKLRKRWW (Artificial polypeptide designated MU 112) [MU_112, 24] | >40 µM | >40 µM | 2.5 µM | 5 µM | 2.5 µM | 2.5 µM | – |
| LRKLRKRLLRLRKLRKRLLR (Artificial polypeptide designated MU 82) [MU_82, 21] | >40 µM | >40 µM | 2.5 µM | 10 µM | 2.5 µM | 2.5 µM | – |
| MRKMRKRMMMRKMRKRMM (Artificial polypeptide designated MU 16) [MU_5] | >40 µM | >40 µM | 20 µM | 40 µM | 20 µM | 10 µM | – |
| NRKNRKRNNNRKNRKRNN (Artificial polypeptide designated MU 11) [MU_11, 80] | >40 µM | >40 µM | 40 µM | >40 µM | >40 µM | >40 µM | – |
| PRKPRKRPPPRKPRKRPP (Artificial polypeptide designated MU 20) [MU_20, 86] | >40 µM | >40 µM | >40 µM | >40 µM | >40 µM | >40 µM | – |
| QRKQRKRQQQRKQRKRQQ (Artificial polypeptide designated MU 9) [MU_9, 79] | >40 µM | >40 µM | >40 µM | >40 µM | >40 µM | >40 µM | – |
| RLTRKRGLK (listed as Homo sapiens) [apoB3359-3367, monomeric 9-mer of apolipoprotein B, reference compound] | – | – | – | – | – | – | no detectable antifungal activity |
| SRKSRKRSSSRKSRKRSS (Artificial polypeptide designated MU 13) [MU_13, 81] | >40 µM | >40 µM | >40 µM | >40 µM | >40 µM | >40 µM | – |
| TRKTRKRTTTRKTRKRTT (Artificial polypeptide designated MU 15) [MU_15, 83] | >40 µM | >40 µM | >40 µM | >40 µM | >40 µM | >40 µM | – |
| VRKVRKRVVVRKVRKRVV (Artificial polypeptide designated MU 14) [MU_14, 82] | >40 µM | >40 µM | >40 µM | >40 µM | >40 µM | >40 µM | – |
| WRKWRKRWWLRKLRKRLL (Artificial polypeptide designated GIN 34) | 10 µM | 40 µM | 1.25 µM | 12.5 µM | 0.6 µM | 1.25 µM | – |
| modified apoB3359-3367: SEQ ID No. 7; modified form of the apoB3359-3367 9-mer, sequence shown only in Table 1 drawing (LRTRKRGRK; not fully specified) [reference compound] | – | – | – | – | – | – | no detectable antifungal activity |

— patent US8916516B2, “Treatment of fungal and/or protist infections” (AI2 Limited, priority 2005, dated 2014)
